Laboratory results: patent publication US20090105149A1, “Compounds comprising lpa” (ENKAM PHARMACEUTICALS A/S, priority 2003, published 2009)

Legend:
[1] = tested on: rats treated with (25-35) β-amyloid fragment; assay: Amyloid burden in brain sections, (25-35) β-amyloid fragment rat model; format: in vivo; conditions: Study 2; sub-occipital 5 μg, days 7, 10, 13; β-amyloid only = 100%
Protocol: The number of animals in the groups varied from 3 to 13. Results were analysed using one-way ANOVA (F(2,18)=5.2, p=0.016), and significance of results was contingent on achieving a p-value of less than 0.05 (*p<0.05 and **p<0.01), when compared with the A-β/V group (Newman-Keuls posttest).
The number of animals in the groups varied from 2 to 12. Results were analysed using one-way ANOVA (F(2,15)=9.54, p=0.002), and significance of results was contingent on achieving a p-value of less than 0.05 (***p<0.001), when compared with the A-β/V group (Newman-Keuls posttest).
The number of animals per group varied from 3 to 13. The results were analysed using one-way ANOVA (F(2,12)=18.6, P=0.002) and significance of results was contingent on achieving a p-value of less than 0.05 (***p<0.001) when compared with the A-β/V group (Bonferroni's multiple comparison test).
The number of animals per group varied from 3 to 5. The results were analysed using one-way ANOVA (F(2,9)=10.6, P=0.004) and significance of results was contingent on achieving a p-value of less than 0.05 (***p<0.001) when compared with the A-β/V group (Newman-Keuls post-test).
Behaviour of animals was evaluated using the Social Recognition test, the Open Field test or the Light-dark Discriminating γ-maze. […] In addition, the number of neurons in selected areas of brain-sections was calculated using a stereological approach.

[2] = tested on: rats treated with (25-35) β-amyloid fragment; assay: Open Field test, (25-35) β-amyloid fragment rat model; format: in vivo; conditions: day 14; for time spent exploring holes / time spent rearing: sub-occipital, days 7, 10, 13
Protocol: The peptide was applied sub-occipitally at days 7, 10, and 13 after the (25-35) β-amyloid fragment induced neurotoxicity. […] The number of animals per group varied from 9 to 11. ‘A-β’ and ‘V’ are the abbreviations of the (25-35) β-amyloid fragment and vehicle, respectively. The results were analysed using unpaired t-test and significance of results was contingent on achieving a p-value of less than 0.05 (*p<0.05, **p<0.01), when compared with the first measurement period (1-3 min.).
The present study employed a rat model, in which neurotoxicity and cognitive impairment were induced by the (25-35) β-amyloid peptide fragment (see Maurice T., et al. (1996) (Brain Res. 706:181-93) and Delobette S., et al. (1997) Eur J Pharmacol. 319:1-4). Short-term memory deficit induced by the (25-35) β-amyloid peptide fragment in rat is of special importance to study, as it resembles one of the clinical manifestations of Alzheimer's disease. Short-term memory deficit in rats was evaluated using three different behavioural tests: the Social Recognition (Kogan et al, (2000) Hippocampus 10:47-56), Open Field (Cerbone and Sadile, (1994) Neurosci Biobehav Rev. 18:497-518; Vianna et al, (2000) Learn Mem. 7:333-40) and Y-maze (Clayton & Williams, (2000) Neurobiol Learn Mem. 74:135-45) tests. In addition, neuropathological investigations were performed on brain tissue collected at the time of sacrifice. The FGL peptide was administered either sub-occipitally or intranasally.
Behaviour of animals was evaluated using the Social Recognition test, the Open Field test or the Light-dark Discriminating γ-maze. On day 28-30 or day 51 after i.c.v. administration of the (25-35) β-amyloid fragment, the animals were sacrificed, and in selected studies, the brain tissue was collected, histological sections were immunostained with A-β specific antibodies and the amyloid-burden was calculated as a percentage of the A-βpositive area. In addition, the number of neurons in selected areas of brain-sections was calculated using a stereological approach.

FGLd: MAP-type dendrimer of FGL; dendrimeric tetramer of the FGL peptide (EVYVVAENQQGKSKA)
amyloid burden in the CA3 area of the hippocampus [1]: 44% | amyloid burden in the cingulate cortex [1]: 42% | locomotion activity [2]: unaffected | time spent exploring holes ([2]; first measurement period): 3.3 s | time spent rearing ([2]; first measurement period): 7.0 s | time spent exploring holes ([2]; last measurement period): 0.1 s | time spent rearing ([2]; last measurement period): 0.7 s
